Structures are written as SMILES.

Holding throughout (assay type): biochemical
For one experiment, the target named is T1, HDAC6 enzyme (Homo sapiens, UniProt Q9UBN7).
T1 construct: transducing full length HDAC1 and HDAC6 genes into Sf-9 insect cells; GST; purchased SignalChem; host or cells: Sf-9 insect cells
T1 sequence (Q9UBN7 1-1215): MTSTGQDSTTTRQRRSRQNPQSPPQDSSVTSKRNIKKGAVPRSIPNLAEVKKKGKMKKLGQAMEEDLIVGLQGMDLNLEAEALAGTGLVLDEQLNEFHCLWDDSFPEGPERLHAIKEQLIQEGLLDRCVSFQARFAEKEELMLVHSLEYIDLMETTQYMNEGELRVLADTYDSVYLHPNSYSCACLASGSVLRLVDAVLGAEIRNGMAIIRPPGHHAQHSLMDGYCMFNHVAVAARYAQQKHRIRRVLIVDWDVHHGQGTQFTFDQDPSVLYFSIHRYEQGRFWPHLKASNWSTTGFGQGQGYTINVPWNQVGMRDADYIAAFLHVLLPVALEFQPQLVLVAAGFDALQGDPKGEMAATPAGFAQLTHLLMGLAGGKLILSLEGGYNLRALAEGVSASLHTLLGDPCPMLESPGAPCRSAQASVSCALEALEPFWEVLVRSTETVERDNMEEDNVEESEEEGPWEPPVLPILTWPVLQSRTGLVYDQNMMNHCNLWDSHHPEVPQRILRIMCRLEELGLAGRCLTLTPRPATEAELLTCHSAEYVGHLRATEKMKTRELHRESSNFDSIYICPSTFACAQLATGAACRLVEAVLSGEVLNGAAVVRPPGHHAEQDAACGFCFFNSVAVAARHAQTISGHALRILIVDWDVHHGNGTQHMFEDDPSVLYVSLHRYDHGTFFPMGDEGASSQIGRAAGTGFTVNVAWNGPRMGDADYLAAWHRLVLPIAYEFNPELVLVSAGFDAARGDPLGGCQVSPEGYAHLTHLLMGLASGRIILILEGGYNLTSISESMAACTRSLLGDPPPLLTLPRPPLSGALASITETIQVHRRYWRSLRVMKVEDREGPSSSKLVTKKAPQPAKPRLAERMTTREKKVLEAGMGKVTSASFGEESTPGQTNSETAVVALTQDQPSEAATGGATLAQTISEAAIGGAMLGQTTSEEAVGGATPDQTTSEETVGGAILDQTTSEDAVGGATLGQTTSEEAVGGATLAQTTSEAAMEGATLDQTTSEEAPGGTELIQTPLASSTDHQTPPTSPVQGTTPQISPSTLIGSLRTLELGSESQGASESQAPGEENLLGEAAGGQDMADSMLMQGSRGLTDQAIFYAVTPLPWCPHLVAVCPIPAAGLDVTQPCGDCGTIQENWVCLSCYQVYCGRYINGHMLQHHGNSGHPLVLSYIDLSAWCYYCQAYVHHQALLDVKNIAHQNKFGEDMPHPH
Description: HDAC1/6 Enzyme Inhibitory Assay (HDAC-Glo I/II Assay kit), HDAC6. The following applies: 1 μM test compound, wells without enzyme = 100% inhibition; for inhibition at 1 µM: read-out: HDAC6 inhibitory rate (%) (1 μM). Put shortly: (§1)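 Steps: compound in pH 7.5 Tris buffer plus enzyme (full-length HDAC1 or HDAC6 from Sf-9, GST-purified), 60 min at room temperature; add HDAC-Glo substrate-developer; react 20 min; read luminescence. Relative activity is calculated against enzyme-free wells taken as full inhibition.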

A further experiment deals with T2, HDAC1 enzyme (Homo sapiens, UniProt Q13547).
T2 construct: transducing full length HDAC1 and HDAC6 genes into Sf-9 insect cells; GST; purchased SignalChem; host or cells: Sf-9 insect cells
T2 sequence (Q13547 whole entry): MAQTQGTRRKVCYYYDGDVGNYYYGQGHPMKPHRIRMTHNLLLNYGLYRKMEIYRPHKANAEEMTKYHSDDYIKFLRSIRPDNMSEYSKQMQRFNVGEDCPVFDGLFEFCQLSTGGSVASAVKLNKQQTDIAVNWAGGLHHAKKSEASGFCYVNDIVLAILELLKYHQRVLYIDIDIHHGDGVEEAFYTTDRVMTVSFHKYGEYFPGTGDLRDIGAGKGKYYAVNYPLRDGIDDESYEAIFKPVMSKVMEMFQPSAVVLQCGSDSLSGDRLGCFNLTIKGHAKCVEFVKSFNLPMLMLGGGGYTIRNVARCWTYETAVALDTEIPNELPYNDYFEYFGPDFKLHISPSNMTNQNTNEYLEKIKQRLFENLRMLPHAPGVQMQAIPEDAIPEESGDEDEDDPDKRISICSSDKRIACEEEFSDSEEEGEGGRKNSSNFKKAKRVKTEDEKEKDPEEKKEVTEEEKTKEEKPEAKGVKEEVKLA
Briefly: HDAC1/6 Enzyme Inhibitory Assay (HDAC-Glo I/II Assay kit), HDAC1. The following applies: 1 μM test compound, wells without enzyme = 100% inhibition; for inhibition at 1 µM: read-out: HDAC1 inhibitory rate (%) (1 μM). In short, it runs like this:
as §1

In the next experiment the target is T3, HDAC9 enzyme (Homo sapiens, UniProt Q9UKV0).
T3 construct: transducing full length HDAC9 gene into Sf-9 insect cells; made in house; host or cells: Sf-9 insect cells
T3 sequence (Q9UKV0 whole entry, species assumed): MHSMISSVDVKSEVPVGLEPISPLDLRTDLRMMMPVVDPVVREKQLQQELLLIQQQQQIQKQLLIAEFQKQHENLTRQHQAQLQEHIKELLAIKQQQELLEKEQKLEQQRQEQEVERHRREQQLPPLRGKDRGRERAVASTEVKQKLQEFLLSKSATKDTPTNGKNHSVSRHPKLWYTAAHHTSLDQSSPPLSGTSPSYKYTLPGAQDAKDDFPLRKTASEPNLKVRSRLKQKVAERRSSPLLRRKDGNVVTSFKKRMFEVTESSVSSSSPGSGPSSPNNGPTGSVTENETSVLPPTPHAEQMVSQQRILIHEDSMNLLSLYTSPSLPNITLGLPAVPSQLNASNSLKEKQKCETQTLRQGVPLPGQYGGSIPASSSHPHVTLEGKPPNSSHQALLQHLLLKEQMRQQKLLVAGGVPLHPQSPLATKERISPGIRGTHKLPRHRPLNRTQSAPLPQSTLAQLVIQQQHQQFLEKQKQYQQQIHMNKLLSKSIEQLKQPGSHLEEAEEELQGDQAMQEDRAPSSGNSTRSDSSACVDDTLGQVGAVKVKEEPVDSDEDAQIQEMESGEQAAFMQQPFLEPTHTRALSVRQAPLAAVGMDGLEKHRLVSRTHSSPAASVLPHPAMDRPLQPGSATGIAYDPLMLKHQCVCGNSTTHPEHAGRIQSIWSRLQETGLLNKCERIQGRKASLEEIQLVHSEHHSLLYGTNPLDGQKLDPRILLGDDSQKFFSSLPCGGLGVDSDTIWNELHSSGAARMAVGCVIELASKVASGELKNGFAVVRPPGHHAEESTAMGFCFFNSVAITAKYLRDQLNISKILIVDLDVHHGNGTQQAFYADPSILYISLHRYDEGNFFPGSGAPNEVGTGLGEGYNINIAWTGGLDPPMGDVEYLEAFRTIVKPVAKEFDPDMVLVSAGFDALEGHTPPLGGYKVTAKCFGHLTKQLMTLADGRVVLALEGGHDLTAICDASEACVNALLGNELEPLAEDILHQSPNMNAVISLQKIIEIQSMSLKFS
Description: HDAC9 Enzyme Inhibitory Assay (HDAC-Glo class IIa). The conditions noted are these: 1 μM test compound, wells without enzyme = 100% inhibition; for inhibition at 1 µM: read-out: HDAC9 inhibitory rate (%) (1 μM). In short, it runs like this: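 Luminescent HDAC-Glo class IIa readout after a 20 min room-temperature reaction; relative inhibition referenced to enzyme-free wells as 100%. Test compound first preincubated 60 min with Sf-9-expressed, Ni-NTA-purified full-length HDAC9 in pH 7.5 Tris buffer containing 135 mM NaCl, 0.6 mM glutathione and 0.01% Tween-20.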

Take `O=C(CCC(F)F)N[C@@H]1CCCC[C@H]1N1Cc2ccc(-c3noc(C(F)(F)F)n3)cc2C1=O` [Example 126, 4,4-difluoro-N-((1R,2R)-2-(1-oxo-6-(5-(trifluoromethyl)-1,2,4-oxadiazol-3-yl)-1,3-dihydro-2H-isoindol-2-yl)cyclohexyl)butanamide]: the inhibition at 1 µM at HDAC6 enzyme amounted to 100%; at HDAC1 enzyme it was 10%; at HDAC9 enzyme, 59%.

For `O=C(N[C@@H]1CCCC[C@H]1N1Cc2ccc(-c3noc(C(F)(F)F)n3)cc2C1=O)C1COC1` [Example 127, N-((1R,2R)-2-(1-oxo-6-(5-(trifluoromethyl)-1,2,4-oxadiazol-3-yl)-1,3-dihydro-2H-isoindol-2-yl)cyclohexyl)oxetane-3-carboxamide], the inhibition at 1 µM on HDAC6 enzyme amounted to 99%; on HDAC1 enzyme it was 5%; at HDAC9 enzyme, 47%.

On to `O=C1CC[C@@H](C(=O)N[C@@H]2CCCC[C@H]2N2Cc3ccc(-c4noc(C(F)(F)F)n4)cc3C2=O)N1` [Example 128, 5-oxo-N-((1R,2R)-2-(1-oxo-6-(5-(trifluoromethyl)-1,2,4-oxadiazol-3-yl)-1,3-dihydro-2H-isoindol-2-yl)cyclohexyl)-L-prolinamide], for which the inhibition at 1 µM at HDAC6 enzyme was 92%; at HDAC1 enzyme it was -3%; on HDAC9 enzyme it was 39%.

As to `O=C(N[C@@H]1CCCC[C@H]1N1Cc2ccc(-c3noc(C(F)(F)F)n3)cc2C1=O)[C@H]1CCCO1` [Example 129, (2R)-N-((1R,2R)-2-(1-oxo-6-(5-(trifluoromethyl)-1,2,4-oxadiazol-3-yl)-1,3-dihydro-2H-isoindol-2-yl)cyclohexyl)tetrahydrofuran-2-carboxamide], the inhibition at 1 µM at HDAC6 enzyme was 100%; at HDAC1 enzyme, 9%; on HDAC9 enzyme, 45%.

`O=C1C[C@H](C(=O)N[C@@H]2CCCC[C@H]2N2Cc3ccc(-c4noc(C(F)(F)F)n4)cc3C2=O)CN1` [Example 130, (3S)-5-oxo-N-((1R,2R)-2-(1-oxo-6-(5-(trifluoromethyl)-1,2,4-oxadiazol-3-yl)-1,3-dihydro-2H-isoindol-2-yl)cyclohexyl)pyrrolidine-3-carboxamide]: the inhibition at 1 µM amounted to 86% on HDAC6 enzyme, 0% on HDAC1 enzyme and 30% on HDAC9 enzyme.

Take `O=C(N[C@@H]1CCCC[C@H]1N1Cc2ccc(-c3noc(C(F)(F)F)n3)cc2C1=O)C1CC1F` (stereo partly drawn) [Example 132, 2-fluoro-N-((1R,2R)-2-(1-oxo-6-(5-(trifluoromethyl)-1,2,4-oxadiazol-3-yl)-1,3-dihydro-2H-isoindol-2-yl)cyclohexyl)cyclopropanecarboxamide]: the inhibition at 1 µM at HDAC6 enzyme worked out at 99%; at HDAC1 enzyme, 5%; at HDAC9 enzyme, 55%.

In the case of `O=C(N[C@@H]1CCCC[C@H]1N1Cc2ccc(-c3noc(C(F)(F)F)n3)cc2C1=O)C1CCCCCO1` (stereo partly drawn) [Example 133, N-((1R,2R)-2-(1-oxo-6-(5-(trifluoromethyl)-1,2,4-oxadiazol-3-yl)-1,3-dihydro-2H-isoindol-2-yl)cyclohexyl)oxepane-2-carboxamide], the “HDAC6 inhibitory rate (%) (1 μM)” value on HDAC6 enzyme (1 µM) was determined as 99%. In addition, at HDAC1 enzyme (1 µM), the “HDAC1 inhibitory rate (%) (1 μM)” value turned out to be 9%. Further, the “HDAC9 inhibitory rate (%) (1 μM)” value at HDAC9 enzyme is listed as 38%.

For the compound `O=C1c2cc(-c3noc(C(F)(F)F)n3)ccc2CN1[C@@H]1CCCC[C@H]1NC(=O)C1(c2ccccc2)COC1` [Example 134, N-((1R,2R)-2-(1-oxo-6-(5-(trifluoromethyl)-1,2,4-oxadiazol-3-yl)-1,3-dihydro-2H-isoindol-2-yl)cyclohexyl)-3-phenyloxetane-3-carboxamide], the inhibition at 1 µM was 99% at HDAC6 enzyme, -5% on HDAC1 enzyme and 36% on HDAC9 enzyme.

For `CCC1(C(=O)N[C@@H]2CCCC[C@H]2N2Cc3ccc(-c4noc(C(F)(F)F)n4)cc3C2=O)COC1` [Example 138, 3-ethyl-N-((1R,2R)-2-(1-oxo-6-(5-(trifluoromethyl)-1,2,4-oxadiazol-3-yl)-1,3-dihydro-2H-isoindol-2-yl)cyclohexyl)oxetane-3-carboxamide], the values for the inhibition at 1 µM at HDAC6 enzyme, on HDAC1 enzyme and at HDAC9 enzyme were 97%, 2% and 55%, respectively.

As for `O=C(N[C@@H]1CCCC[C@H]1N1Cc2ccc(-c3noc(C(F)(F)F)n3)cc2C1=O)N1CCOCC1` [Example 139, N-((1R,2R)-2-(1-oxo-6-(5-(trifluoromethyl)-1,2,4-oxadiazol-3-yl)-1,3-dihydro-2H-isoindol-2-yl)cyclohexyl)morpholine-4-carboxamide], the inhibition at 1 µM on HDAC6 enzyme came out at 98%; at HDAC1 enzyme it was 5%; on HDAC9 enzyme, 25%.

Consider `CC(C)(C)OC(=O)N[C@@H]1CCC[C@H]1N1Cc2ccc(-c3noc(C(F)(F)F)n3)cc2C1=O` [Example 140, tert-butyl ((1R,2R)-2-(1-oxo-6-(5-(trifluoromethyl)-1,2,4-oxadiazol-3-yl)-1,3-dihydro-2H-isoindol-2-yl)cyclopentyl)carbamate], for which the inhibition at 1 µM turned out to be 39% at HDAC6 enzyme, 27% at HDAC1 enzyme and 41% on HDAC9 enzyme.

Take `CC(C)(C)OC(=O)N[C@H]1CCC[C@@H]1N1Cc2ccc(-c3noc(C(F)(F)F)n3)cc2C1=O` [Example 141, tert-butyl ((1S,2S)-2-(1-oxo-6-(5-(trifluoromethyl)-1,2,4-oxadiazol-3-yl)-1,3-dihydro-2H-isoindol-2-yl)cyclopentyl)carbamate]: the inhibition at 1 µM at HDAC6 enzyme worked out at 42%; on HDAC1 enzyme, 28%; at HDAC9 enzyme, 43%.

As to `N[C@@H]1CCC[C@H]1N1Cc2ccc(-c3noc(C(F)(F)F)n3)cc2C1=O` [Example 142, 2-((1R,2R)-2-aminocyclopentyl)-6-(5-(trifluoromethyl)-1,2,4-oxadiazol-3-yl)isoindolin-1-one], the values for the inhibition at 1 µM at HDAC6 enzyme, at HDAC1 enzyme and on HDAC9 enzyme were -3%, -6% and 54%, respectively.

In the case of `N[C@H]1CCC[C@@H]1N1Cc2ccc(-c3noc(C(F)(F)F)n3)cc2C1=O` [Example 143, 2-((1S,2S)-2-aminocyclopentyl)-6-(5-(trifluoromethyl)-1,2,4-oxadiazol-3-yl)isoindolin-1-one], the inhibition at 1 µM at HDAC6 enzyme was -4%; at HDAC1 enzyme it was -1%; at HDAC9 enzyme, 52%.

With `O=C(N[C@@H]1CCCC[C@H]1N1Cc2ccc(-c3noc(C(F)(F)F)n3)cc2C1=O)N1C2COCC1C2` [Example 144, N-((1R,2R)-2-(1-oxo-6-(5-(trifluoromethyl)-1,2,4-oxadiazol-3-yl)-1,3-dihydro-2H-isoindol-2-yl)cyclohexyl)-3-oxa-6-azabicyclo[3.1.1]heptane-6-carboxamide], the inhibition at 1 µM stood at 100% at HDAC6 enzyme, 3% on HDAC1 enzyme and 31% at HDAC9 enzyme.

Take `O=C(N[C@@H]1CCCC[C@H]1N1Cc2ccc(-c3noc(C(F)(F)F)n3)cc2C1=O)N1C2CCC1COC2` [Example 145, N-((1R,2R)-2-(1-oxo-6-(5-(trifluoromethyl)-1,2,4-oxadiazol-3-yl)-1,3-dihydro-2H-isoindol-2-yl)cyclohexyl)-3-oxa-8-azabicyclo[3.2.1]octane-8-carboxamide]: the inhibition at 1 µM at HDAC6 enzyme was found to be 98%; at HDAC1 enzyme, 0%; on HDAC9 enzyme, 35%.

For the origin of these results see patent US10308643B2, “Heterocyclic compound” (Takeda Pharmaceutical Company Limited, priority 2015, dated 2019).
